The values below come from patent US10335454B2, “Combination and use” (HELPERBY THERAPEUTICS LIMITED, priority 2014, dated 2019).

The test system of assay [1] is log phase NDM-1 Klebsiella pneumoniae (NCTC 13443 strain). In words: Time-kill of suloctidil and colistin, alone and in combination, against log phase NDM-1 Klebsiella pneumoniae. The assay is classed as cell-based. The following applies: for kill effect (CFU counts): colistin alone 16 μg/ml, FIG. 19. Here is the method:
The synergistic effect of suloctidil in combination with colistin was tested against log phase NDM-1 Klebsiella pneumoniae using time-kill methods over a period of 24 hours.
Bacterial strain used: NCTC 13443 strain of NDM-1 Klebsiella pneumoniae
Growth of bacteria: Log phase growth of the bacteria was carried out according to methods known in the art.
(§1) (i) Suloctidil was obtained from a commercial source and dissolved in DMSO to make a stock concentration of 10 mg/ml.
(§2) (ii) Colistin was obtained from a commercial source at a concentration of 20 mg/ml.
Both suloctidil and colistin were then added to 96 well plates either alone or in the combinations shown below in Table 1.
(§3) The overnight culture was diluted with nutrient broth (Oxoid) to 10^7 CFU/ml and 280 μl and 290 μl of the culture was added to each combination well and single agent well, respectively, to make a final […] of 300 μl. Incubation of the compounds with the bacterial suspension was carried out for 24 hours. At 0, 2, 4, 7 and 25 hours, CFU counts were performed to measure the kill effects of the drug combination.

Assay [2] concerns log phase NDM-1 E. coli (BAA2469 strain). The assay is described as follows: Time-kill of suloctidil and colistin, alone and in combination, against log phase NDM-1 E. coli. The conditions noted are these: FIGS. 28 to 34. The assay is classed as cell-based. Here is the method: Materials and Methods • Bacterial strain used: BAA2469 strain of NDM-1 E. coli • Growth of bacteria: Log phase growth of bacteria was carried out according to methods known in the art.
as §1, §2
Both suloctidil and colistin were then added to 96 well plates either alone or in the combinations shown below in Table 2.
as §3

In the case of `CCCCCCCCNC(C)C(O)c1ccc(SC(C)C)cc1` (centres unmarked) [suloctidil], the “antimicrobial effect when used alone” value in assay [1] (suloctidil alone at 32, 16, 8 and 4 μg/ml, time-kill, FIGS. 18 to 27) is listed as “no antimicrobial effect”; in assay [2] (suloctidil alone at 16, 8 and 4 μg/ml), “no antimicrobial effect”.

For the compound colistin, the “kill effect (CFU counts)” value in assay [1] (after 7 hours) is “complete kill”; in assay [1] (after 25 hours), “bacteria re-growth”. Moreover, the “antimicrobial effect when used alone” value in assay [1] (colistin alone at 8 and 4 μg/ml, time-kill, FIGS. 20, 21, 24, 25 and 27) was “no antimicrobial effect”; in assay [1] (colistin alone at 32 and 16 μg/ml, time-kill, FIGS. 18, 19, 22, 23 and 26), “antimicrobial effect”; in assay [2] (colistin alone at 8, 4, 2 and 1 μg/ml), “no antimicrobial effect”. For the same compound, the “duration of the antimicrobial effect” value in assay [1] (colistin alone at 32 and 16 μg/ml, time-kill) is listed as “not long term”.
